Assay results from ChEMBL document CHEMBL4507291 (2021).

What was measured:
[1] = biological target: Sigma non-opioid intracellular receptor 1 (Homo sapiens, UniProt Q99720); experiment: GPCRScan assay: inhibition of Sigma 1; parameters: radioligand conc. used [nm] 4.0 – 5.0, parental cells HEKT
[2] = biological target: T1, 5-hydroxytryptamine receptor 3A (Homo sapiens) (UniProt P46098); experiment: Inhibition of Serotonin (5-Hydroxytryptamine) 5-HT3 at 10 µM in the Eurofins-Panlabs radioligand binding assay (Eurofins_assay_271910); parameters: ligand concentration 0.69 nM; details: Compound concentration 10.0 uM
T1 sequence (whole entry): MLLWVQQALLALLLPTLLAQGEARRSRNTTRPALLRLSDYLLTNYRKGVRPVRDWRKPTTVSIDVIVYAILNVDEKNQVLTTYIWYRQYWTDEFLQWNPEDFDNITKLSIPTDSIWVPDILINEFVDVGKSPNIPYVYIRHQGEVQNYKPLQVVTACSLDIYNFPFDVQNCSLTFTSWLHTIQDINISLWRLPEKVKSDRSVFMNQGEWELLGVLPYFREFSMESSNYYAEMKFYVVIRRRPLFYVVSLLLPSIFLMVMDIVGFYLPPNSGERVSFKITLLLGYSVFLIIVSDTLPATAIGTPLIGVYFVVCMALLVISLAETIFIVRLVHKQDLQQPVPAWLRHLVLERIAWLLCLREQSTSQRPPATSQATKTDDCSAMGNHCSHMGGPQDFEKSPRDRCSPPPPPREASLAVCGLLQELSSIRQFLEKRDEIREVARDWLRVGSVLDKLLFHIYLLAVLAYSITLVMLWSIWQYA

[3] = biological target: AMP-activated protein kinase (AMPK) alpha-1/beta-1/gamma-1 (Homo sapiens) (UniProt P54619+Q9Y478+Q13131); experiment: AMPK A1/B1/G1 Kinase screen; assay type: protein-complex assay; details: Compound concentration 1.0 uM
Chain of AMP-activated protein kinase (AMPK) alpha-1/beta-1/gamma-1 (Homo sapiens) (P54619 whole entry): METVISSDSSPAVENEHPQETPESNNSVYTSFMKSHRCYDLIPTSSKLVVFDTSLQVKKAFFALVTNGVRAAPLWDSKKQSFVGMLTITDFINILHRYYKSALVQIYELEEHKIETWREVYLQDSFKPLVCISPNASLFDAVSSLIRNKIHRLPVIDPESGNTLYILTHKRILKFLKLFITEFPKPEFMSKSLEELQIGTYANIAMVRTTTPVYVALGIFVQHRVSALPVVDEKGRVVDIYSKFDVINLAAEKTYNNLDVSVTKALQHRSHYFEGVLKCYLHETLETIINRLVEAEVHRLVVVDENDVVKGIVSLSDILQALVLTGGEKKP
Chain of AMP-activated protein kinase (AMPK) alpha-1/beta-1/gamma-1 (Homo sapiens) (Q13131 whole entry partner): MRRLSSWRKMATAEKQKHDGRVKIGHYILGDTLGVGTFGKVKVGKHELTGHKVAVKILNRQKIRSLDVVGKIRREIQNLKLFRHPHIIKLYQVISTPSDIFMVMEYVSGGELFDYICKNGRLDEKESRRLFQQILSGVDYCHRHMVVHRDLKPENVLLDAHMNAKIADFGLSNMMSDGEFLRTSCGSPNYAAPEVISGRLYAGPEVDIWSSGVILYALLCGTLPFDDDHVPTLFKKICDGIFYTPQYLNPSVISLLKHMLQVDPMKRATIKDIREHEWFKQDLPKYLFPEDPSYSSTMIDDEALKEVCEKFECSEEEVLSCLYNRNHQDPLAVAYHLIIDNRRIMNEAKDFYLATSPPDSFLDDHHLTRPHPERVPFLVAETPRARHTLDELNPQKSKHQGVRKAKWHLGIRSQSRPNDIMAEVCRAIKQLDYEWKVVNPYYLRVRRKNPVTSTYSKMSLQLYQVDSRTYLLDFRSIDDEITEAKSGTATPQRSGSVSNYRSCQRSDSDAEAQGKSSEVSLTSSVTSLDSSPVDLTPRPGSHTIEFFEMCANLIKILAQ
Chain of AMP-activated protein kinase (AMPK) alpha-1/beta-1/gamma-1 (Homo sapiens) (Q9Y478 2-270 partner limits assumed): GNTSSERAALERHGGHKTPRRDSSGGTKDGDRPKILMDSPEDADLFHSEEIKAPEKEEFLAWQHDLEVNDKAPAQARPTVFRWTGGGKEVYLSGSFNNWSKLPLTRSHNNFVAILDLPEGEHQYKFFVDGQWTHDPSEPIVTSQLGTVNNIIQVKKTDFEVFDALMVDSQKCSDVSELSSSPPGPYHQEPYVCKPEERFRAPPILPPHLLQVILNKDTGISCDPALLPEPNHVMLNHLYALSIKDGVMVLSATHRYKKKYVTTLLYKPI

[4] = system: Mast/stem cell growth factor receptor Kit (Homo sapiens), P10721 [V654A]; experiment: KIT V654A Kinase screen; details: Compound concentration 1.0 uM
Chain of Mast/stem cell growth factor receptor Kit (Homo sapiens), P10721 [V654A] (P10721 whole entry V654A): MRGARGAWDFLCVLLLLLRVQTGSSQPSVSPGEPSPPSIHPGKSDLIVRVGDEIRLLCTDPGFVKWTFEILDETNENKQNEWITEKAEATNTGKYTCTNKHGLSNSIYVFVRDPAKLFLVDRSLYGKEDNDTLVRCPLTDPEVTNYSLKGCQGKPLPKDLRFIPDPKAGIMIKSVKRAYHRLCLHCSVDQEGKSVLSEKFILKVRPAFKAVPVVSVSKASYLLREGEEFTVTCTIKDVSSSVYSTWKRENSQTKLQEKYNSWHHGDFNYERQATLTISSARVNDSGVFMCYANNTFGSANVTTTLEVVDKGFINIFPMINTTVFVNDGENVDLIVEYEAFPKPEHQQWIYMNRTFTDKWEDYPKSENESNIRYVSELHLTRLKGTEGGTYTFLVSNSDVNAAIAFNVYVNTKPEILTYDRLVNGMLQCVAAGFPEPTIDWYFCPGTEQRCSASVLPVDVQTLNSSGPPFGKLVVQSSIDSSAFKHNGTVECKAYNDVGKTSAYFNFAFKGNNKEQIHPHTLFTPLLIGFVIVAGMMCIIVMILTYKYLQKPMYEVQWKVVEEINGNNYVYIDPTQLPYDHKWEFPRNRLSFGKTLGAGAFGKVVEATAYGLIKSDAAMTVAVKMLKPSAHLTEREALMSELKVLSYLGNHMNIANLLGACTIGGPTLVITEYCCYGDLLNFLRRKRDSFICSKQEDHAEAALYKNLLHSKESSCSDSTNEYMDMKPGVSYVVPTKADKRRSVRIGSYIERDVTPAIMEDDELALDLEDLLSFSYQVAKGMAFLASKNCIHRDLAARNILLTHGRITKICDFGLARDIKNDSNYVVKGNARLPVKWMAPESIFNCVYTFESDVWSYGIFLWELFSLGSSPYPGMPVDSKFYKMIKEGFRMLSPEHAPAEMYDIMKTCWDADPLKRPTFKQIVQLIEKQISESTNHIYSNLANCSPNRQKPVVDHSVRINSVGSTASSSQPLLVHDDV

[5] = biological target: Tyrosine-protein kinase Lyn (Homo sapiens) (UniProt P07948); experiment: LYN A Kinase screen; details: Compound concentration 1.0 uM
Chain of Tyrosine-protein kinase Lyn (Homo sapiens) (P07948 2-512 limits assumed): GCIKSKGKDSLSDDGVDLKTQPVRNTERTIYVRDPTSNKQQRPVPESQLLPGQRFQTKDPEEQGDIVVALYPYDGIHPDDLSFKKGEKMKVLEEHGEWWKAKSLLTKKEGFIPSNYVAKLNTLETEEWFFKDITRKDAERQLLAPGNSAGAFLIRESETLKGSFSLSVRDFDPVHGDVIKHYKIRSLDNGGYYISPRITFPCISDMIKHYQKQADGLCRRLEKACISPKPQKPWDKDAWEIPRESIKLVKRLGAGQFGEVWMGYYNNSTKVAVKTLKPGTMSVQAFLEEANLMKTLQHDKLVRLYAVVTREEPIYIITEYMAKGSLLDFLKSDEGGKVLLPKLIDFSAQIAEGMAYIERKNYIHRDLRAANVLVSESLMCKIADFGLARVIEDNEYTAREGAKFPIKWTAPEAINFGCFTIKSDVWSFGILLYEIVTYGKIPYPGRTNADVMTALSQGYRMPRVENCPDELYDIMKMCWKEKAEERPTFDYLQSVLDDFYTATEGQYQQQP

[6] = biological target: MAP kinase-activated protein kinase 2 (Homo sapiens) (UniProt P49137); experiment: MAPKAPK2 Kinase screen; details: Compound concentration 1.0 uM
Chain of MAP kinase-activated protein kinase 2 (Homo sapiens) (P49137 whole entry, looked up): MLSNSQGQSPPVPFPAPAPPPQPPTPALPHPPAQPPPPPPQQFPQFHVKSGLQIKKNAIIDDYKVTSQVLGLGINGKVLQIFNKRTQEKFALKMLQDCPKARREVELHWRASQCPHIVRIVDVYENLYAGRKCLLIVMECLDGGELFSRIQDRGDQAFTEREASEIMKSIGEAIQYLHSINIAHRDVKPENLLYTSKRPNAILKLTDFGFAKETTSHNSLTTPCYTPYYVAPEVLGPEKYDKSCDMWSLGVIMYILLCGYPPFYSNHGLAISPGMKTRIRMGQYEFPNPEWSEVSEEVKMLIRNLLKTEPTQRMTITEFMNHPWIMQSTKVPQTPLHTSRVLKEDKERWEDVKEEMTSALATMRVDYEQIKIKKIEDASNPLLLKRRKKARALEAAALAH

[7] = biological target: T2, Serine/threonine-protein kinase Nek1 (Homo sapiens) (UniProt Q96PY6); experiment: NEK1 Kinase screen; details: Compound concentration 1.0 uM
T2 sequence (whole entry): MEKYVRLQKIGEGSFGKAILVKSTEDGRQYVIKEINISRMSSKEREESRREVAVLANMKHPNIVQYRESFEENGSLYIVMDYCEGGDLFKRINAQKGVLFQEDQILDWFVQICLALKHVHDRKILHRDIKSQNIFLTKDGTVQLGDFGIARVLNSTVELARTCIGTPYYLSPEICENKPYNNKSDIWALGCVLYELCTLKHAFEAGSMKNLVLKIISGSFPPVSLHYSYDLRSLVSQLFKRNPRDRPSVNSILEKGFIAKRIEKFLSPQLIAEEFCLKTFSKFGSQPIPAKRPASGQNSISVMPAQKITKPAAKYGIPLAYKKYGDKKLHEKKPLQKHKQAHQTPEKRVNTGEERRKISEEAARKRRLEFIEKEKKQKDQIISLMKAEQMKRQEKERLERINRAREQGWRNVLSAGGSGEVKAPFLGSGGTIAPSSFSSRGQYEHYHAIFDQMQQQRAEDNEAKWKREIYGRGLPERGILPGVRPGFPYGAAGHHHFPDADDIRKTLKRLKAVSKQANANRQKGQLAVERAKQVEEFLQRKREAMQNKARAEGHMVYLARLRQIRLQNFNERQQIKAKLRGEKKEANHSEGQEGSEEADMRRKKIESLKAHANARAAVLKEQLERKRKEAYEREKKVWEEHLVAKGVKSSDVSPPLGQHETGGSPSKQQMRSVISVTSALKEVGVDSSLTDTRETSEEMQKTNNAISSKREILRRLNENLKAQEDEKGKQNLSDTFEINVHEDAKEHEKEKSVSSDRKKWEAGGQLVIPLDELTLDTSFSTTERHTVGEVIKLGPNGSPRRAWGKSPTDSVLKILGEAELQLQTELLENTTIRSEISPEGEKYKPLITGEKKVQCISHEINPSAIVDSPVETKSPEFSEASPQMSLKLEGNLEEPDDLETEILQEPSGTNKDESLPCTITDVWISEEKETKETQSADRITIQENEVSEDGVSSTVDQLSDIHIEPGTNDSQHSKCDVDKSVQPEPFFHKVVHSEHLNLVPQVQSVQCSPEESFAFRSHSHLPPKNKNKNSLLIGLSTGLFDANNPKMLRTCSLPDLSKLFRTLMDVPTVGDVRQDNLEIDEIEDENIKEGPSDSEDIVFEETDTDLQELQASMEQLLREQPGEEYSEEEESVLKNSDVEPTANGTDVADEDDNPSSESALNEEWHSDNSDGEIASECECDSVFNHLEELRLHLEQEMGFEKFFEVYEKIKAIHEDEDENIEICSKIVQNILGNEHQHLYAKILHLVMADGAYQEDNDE

[8] = biological target: T3, Serine/threonine-protein kinase 4 (Homo sapiens) (UniProt Q13043); experiment: STK4 (MST1) Kinase screen; details: Compound concentration 1.0 uM
T3 sequence (whole entry): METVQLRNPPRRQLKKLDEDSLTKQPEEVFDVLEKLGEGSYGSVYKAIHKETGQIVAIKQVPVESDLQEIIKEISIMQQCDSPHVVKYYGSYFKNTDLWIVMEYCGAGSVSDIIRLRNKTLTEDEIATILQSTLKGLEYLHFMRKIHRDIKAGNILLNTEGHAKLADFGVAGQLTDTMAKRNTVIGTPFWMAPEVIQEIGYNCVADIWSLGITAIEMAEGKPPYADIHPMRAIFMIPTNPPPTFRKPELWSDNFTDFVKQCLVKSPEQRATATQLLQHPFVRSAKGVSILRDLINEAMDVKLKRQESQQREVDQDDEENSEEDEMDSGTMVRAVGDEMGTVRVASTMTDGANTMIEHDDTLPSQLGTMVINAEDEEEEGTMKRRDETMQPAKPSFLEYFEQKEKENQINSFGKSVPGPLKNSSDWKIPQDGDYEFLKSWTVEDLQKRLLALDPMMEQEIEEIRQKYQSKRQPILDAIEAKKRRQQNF

[9] = biological target: Tyrosine-protein kinase Yes (Homo sapiens) (UniProt P07947); experiment: YES1 Kinase screen; details: Compound concentration 1.0 uM
Chain of Tyrosine-protein kinase Yes (Homo sapiens) (P07947 2-543 limits assumed): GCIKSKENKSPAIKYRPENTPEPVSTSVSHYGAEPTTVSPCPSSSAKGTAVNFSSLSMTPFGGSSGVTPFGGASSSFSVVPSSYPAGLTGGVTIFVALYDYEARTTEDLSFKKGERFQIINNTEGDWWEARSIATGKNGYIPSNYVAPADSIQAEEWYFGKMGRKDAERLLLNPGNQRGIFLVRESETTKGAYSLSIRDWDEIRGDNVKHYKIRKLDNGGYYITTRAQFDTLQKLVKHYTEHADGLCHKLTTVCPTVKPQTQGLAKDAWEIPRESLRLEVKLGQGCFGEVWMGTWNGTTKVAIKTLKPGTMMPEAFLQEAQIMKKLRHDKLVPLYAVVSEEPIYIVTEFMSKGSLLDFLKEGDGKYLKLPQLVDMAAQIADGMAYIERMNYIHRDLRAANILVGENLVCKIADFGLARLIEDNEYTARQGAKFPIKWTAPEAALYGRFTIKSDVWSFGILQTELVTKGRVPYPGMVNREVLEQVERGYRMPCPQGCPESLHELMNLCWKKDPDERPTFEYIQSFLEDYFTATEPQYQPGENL

Rattus norvegicus = species on record: Rattus norvegicus; experiment: GABAA, Ro-15-1788, Hippocampus Eurofins-Panlabs radioligand binding assay; parameters: ligand concentration 1 nM; details: Compound concentration 10.0 uM
[10] = biological target: D(1A) dopamine receptor (Homo sapiens) (UniProt P21728); details: Compound concentration 10.0 uM
Chain of D(1A) dopamine receptor (Homo sapiens) (P21728 whole entry): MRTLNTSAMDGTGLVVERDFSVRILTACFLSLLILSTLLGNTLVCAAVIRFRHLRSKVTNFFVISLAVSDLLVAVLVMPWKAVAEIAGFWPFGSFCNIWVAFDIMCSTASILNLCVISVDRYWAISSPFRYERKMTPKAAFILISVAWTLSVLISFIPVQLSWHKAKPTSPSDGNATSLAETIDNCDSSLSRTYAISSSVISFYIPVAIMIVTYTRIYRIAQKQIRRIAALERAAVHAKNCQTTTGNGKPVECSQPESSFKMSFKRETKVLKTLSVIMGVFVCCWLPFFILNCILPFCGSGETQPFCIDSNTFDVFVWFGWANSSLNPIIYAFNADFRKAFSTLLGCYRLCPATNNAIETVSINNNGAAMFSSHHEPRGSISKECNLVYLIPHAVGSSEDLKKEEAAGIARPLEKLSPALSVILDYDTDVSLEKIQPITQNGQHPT

Chain of Sigma non-opioid intracellular receptor 1 (Q99720 whole entry): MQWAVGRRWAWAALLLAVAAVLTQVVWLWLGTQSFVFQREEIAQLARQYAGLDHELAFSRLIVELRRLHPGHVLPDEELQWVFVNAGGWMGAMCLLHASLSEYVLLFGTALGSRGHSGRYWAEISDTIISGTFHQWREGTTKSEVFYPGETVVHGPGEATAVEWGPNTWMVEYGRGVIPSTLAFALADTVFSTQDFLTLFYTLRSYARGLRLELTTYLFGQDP

C[C@@H]1CN(c2cc(-c3nn(C)c4ccc(OC5(C)CC5)cc34)ncn2)C[C@H](C)O1 [MLi-2-NC]
Ki [1]: 1590 nM

C[C@@H]1CN(c2cc(-c3n[nH]c4ccc(OC5(C)CC5)cc34)ncn2)C[C@H](C)O1 [MLi-2]
inhibition [2]: -9%
inhibition [3]: -3.77%
inhibition [4]: 1.06%
inhibition [5]: 1.05%
inhibition [6]: 2.35%
inhibition [7]: 3.48%
inhibition [8]: 21.8%
inhibition [9]: 5.77%
inhibition (Rattus norvegicus): 1%
inhibition [10]: 12%
